According to US11434242B2, “Dopamine-b-hydroxylase inhibitors” (BIAL-PORTELA & Cª, S.A., priority 2017, dated 2022):

Target: T1, Dopamine beta hydroxylase (Homo sapiens, UniProt P09172)
T1 construct: 125 μl of plasma; tissue Instituto Português do Sangue Transplantação; host or cells: human plasma from healthy donors
T1 sequence (P09172 40-617 limits assumed): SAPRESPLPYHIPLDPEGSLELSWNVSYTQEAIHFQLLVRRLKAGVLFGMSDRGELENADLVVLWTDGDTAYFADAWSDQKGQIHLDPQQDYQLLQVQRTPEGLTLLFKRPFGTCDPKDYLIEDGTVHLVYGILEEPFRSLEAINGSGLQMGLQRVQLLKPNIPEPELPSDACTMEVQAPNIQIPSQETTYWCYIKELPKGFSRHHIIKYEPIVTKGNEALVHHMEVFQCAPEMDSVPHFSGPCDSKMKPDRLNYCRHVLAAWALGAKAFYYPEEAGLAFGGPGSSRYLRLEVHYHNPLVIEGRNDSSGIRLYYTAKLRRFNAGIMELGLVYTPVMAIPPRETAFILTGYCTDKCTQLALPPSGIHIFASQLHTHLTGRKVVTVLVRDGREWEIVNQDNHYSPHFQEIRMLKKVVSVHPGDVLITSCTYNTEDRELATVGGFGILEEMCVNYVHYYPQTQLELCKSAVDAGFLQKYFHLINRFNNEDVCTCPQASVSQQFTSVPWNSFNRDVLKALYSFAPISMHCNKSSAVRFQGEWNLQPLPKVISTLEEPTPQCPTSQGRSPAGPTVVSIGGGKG
Assay: Dopamine beta hydroxylase activity in human plasma
Assay type: biochemical
Settings: for Plasma (0.01 μM), activity in % of control: inhibitor 0.01 μM; for Plasma (0.1 μM), activity in % of control: inhibitor 0.1 μM
How it was run: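 Octopamine production from tyramine over 45 min at 37° C, measured photometrically at 330 nm after SCX extraction and periodate oxidation against an octopamine standard curve, indicates plasma DβH activity. Compounds tested at final 10, 100 and 1000 nM in human plasma, pH 5.0 cofactor buffer, 10 min preincubation; results as % of control.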

Question: `CN(C(=O)Cc1c2n(c(=S)n1C)C[C@@]1(c3cc(Cl)ccc3F)C[C@@H]21)C1CCOC1` (stereo partly drawn) [Example 441, 2-((5aS,6aR)-5a-(5-chloro-2-fluorophenyl)-2-methyl-3-thioxo-2,3,5,5a,6,6a-hexahydrocyclopropa[3,4]pyrrolo[1,2-c]imidazol-1-yl)-N-methyl-N-(tetrahydrofuran-3-yl)acetamide] was tested. Which “Plasma (0.01 μM), activity in % of control” value did it give?
Answer: 72.8 % of control

Question: And the “Plasma (0.1 μM), activity in % of control” value?
Answer: 37.4 % of control

Question: For `CN(C(=O)Cc1c2n(c(=S)n1C)C[C@@]1(c3c(F)ccc(Cl)c3F)C[C@@H]21)C1CCOC1` (stereo partly drawn) [Example 442, 2-((5aS,6aR)-5a-(3-chloro-2,6-difluorophenyl)-2-methyl-3-thioxo-2,3,5,5a,6,6a-hexahydrocyclopropa[3,4]pyrrolo[1,2-c]imidazol-1-yl)-N-methyl-N-(tetrahydrofuran-3-yl)acetamide], which “Plasma (0.01 μM), activity in % of control” value is on record?
Answer: 43.6 % of control

Question: What about the “Plasma (0.1 μM), activity in % of control” value of the same compound?
Answer: 10.0 % of control

Question: For `CN(C(=O)Cc1c2n(c(=S)n1C)C[C@@]1(c3c(F)ccc(Cl)c3F)C[C@@H]21)C1CCOCC1` [Example 443, 2-((5aS,6aR)-5a-(3-chloro-2,6-difluorophenyl)-2-methyl-3-thioxo-2,3,5,5a,6,6a-hexahydrocyclopropa[3,4]pyrrolo[1,2-c]imidazol-1-yl)-N-methyl-N-(tetrahydro-2H-pyran-4-yl)acetamide], which “Plasma (0.01 μM), activity in % of control” value is on record?
Answer: 59.2 % of control

Question: What about the “Plasma (0.1 μM), activity in % of control” value of the same compound?
Answer: 11.5 % of control

Question: `Cn1c(CC(=O)N2CCCO2)c2n(c1=S)C[C@H](c1c(F)ccc(Cl)c1F)C2` [Example 444, (S)-2-(6-(3-chloro-2,6-difluorophenyl)-2-methyl-3-thioxo-2,5,6,7-tetrahydro-3H-pyrrolo[1,2-c]imidazol-1-yl)-1-(isoxazolidin-2-yl)ethan-1-one] was tested. Which “Plasma (0.01 μM), activity in % of control” value did it give?
Answer: 73.5 % of control

Question: And the “Plasma (0.1 μM), activity in % of control” value?
Answer: 57.7 % of control

Question: For `Cn1c(CC(=O)N2CCOCC2)c2n(c1=S)C[C@@H](c1c(F)cccc1F)C2` [Example 445, (R)-2-(6-(2,6-difluorophenyl)-2-methyl-3-thioxo-2,5,6,7-tetrahydro-3H-pyrrolo[1,2-c]imidazol-1-yl)-1-morpholinoethan-1-one], which “Plasma (0.01 μM), activity in % of control” value is on record?
Answer: 95.1 % of control

Question: What about the “Plasma (0.1 μM), activity in % of control” value of the same compound?
Answer: 73.7 % of control

Question: With `Cn1c(CC(=O)N[C@@H]2CCOC2)c2n(c1=S)C[C@@H](c1c(F)cccc1F)C2` [Example 446, 2-((R)-6-(2,6-difluorophenyl)-2-methyl-3-thioxo-2,5,6,7-tetrahydro-3H-pyrrolo[1,2-c]imidazol-1-yl)-N—((R)-tetrahydrofuran-3-yl)acetamide] as the compound, how does the “Plasma (0.01 μM), activity in % of control” value read?
Answer: 83.0 % of control

Question: What about the “Plasma (0.1 μM), activity in % of control” value of the same compound?
Answer: 62.9 % of control

Question: Which results are given for `Cn1c(CC(=O)NC2CCOCC2)c2n(c1=S)C[C@@H](c1c(F)cccc1F)C2` [Example 447, (R)-2-(6-(2,6-difluorophenyl)-2-methyl-3-thioxo-2,5,6,7-tetrahydro-3H-pyrrolo[1,2-c]imidazol-1-yl)-N-(tetrahydro-2H-pyran-4-yl)acetamide]?
Answer: Plasma (0.01 μM), activity in % of control: 94.4 % of control; Plasma (0.1 μM), activity in % of control: 33.2 % of control

Question: `CN(C(=O)Cc1c2n(c(=S)n1C)C[C@@H](c1c(F)cccc1F)C2)C1COC1` [Example 448, (R)-2-(6-(2,6-difluorophenyl)-2-methyl-3-thioxo-2,5,6,7-tetrahydro-3H-pyrrolo[1,2-c]imidazol-1-yl)-N-methyl-N-(oxetan-3-yl)acetamide] was tested. Which “Plasma (0.01 μM), activity in % of control” value did it give?
Answer: 93.3 % of control

Question: What about the “Plasma (0.1 μM), activity in % of control” value of the same compound?
Answer: 65.3 % of control

Question: With `CN1C[C@@H](NC(=O)Cc2c3n(c(=S)n2C)C[C@H](c2c(F)ccc(Br)c2F)C3)CC1=O` [Example 449, 2-((S)-6-(3-bromo-2,6-difluorophenyl)-2-methyl-3-thioxo-2,5,6,7-tetrahydro-3H-pyrrolo[1,2-c]imidazol-1-yl)-N—((S)-1-methyl-5-oxopyrrolidin-3-yl)acetamide] as the compound, how does the “Plasma (0.01 μM), activity in % of control” value read?
Answer: 27.8 % of control

Question: And the “Plasma (0.1 μM), activity in % of control” value?
Answer: 2.3 % of control

Question: What does the source list for `Cn1c(CC(=O)N2CC[C@H](C#N)C2)c2n(c1=S)C[C@H](c1c(F)ccc(Br)c1F)C2` [Example 450, (S)-1-(2-((S)-6-(3-bromo-2,6-difluorophenyl)-2-methyl-3-thioxo-2,5,6,7-tetrahydro-3H-pyrrolo[1,2-c]imidazol-1-yl)acetyl)pyrrolidine-3-carbonitrile]?
Answer: Plasma (0.01 μM), activity in % of control: 32.6 % of control; Plasma (0.1 μM), activity in % of control: 2.3 % of control

Question: What does the source list for `CN(C(=O)Cc1c2n(c(=S)n1C)C[C@H](c1c(F)ccc(Br)c1F)C2)[C@@H]1CCOC1` [Example 451, 2-((S)-6-(3-bromo-2,6-difluorophenyl)-2-methyl-3-thioxo-2,5,6,7-tetrahydro-3H-pyrrolo[1,2-c]imidazol-1-yl)-N-methyl-N—((R)-tetrahydrofuran-3-yl)acetamide]?
Answer: Plasma (0.01 μM), activity in % of control: 39.8 % of control; Plasma (0.1 μM), activity in % of control: 5.5 % of control

Question: For `CN(C)C(=O)C1CCN(C(=O)Cc2c3n(c(=S)n2C)C[C@H](c2c(F)ccc(Br)c2F)C3)CC1` [Example 452, (S)-1-(2-(6-(3-bromo-2,6-difluorophenyl)-2-methyl-3-thioxo-2,5,6,7-tetrahydro-3H-pyrrolo[1,2-c]imidazol-1-yl)acetyl)-N,N-dimethylpiperidine-4-carboxamide], which “Plasma (0.01 μM), activity in % of control” value is on record?
Answer: 49.6 % of control

Question: What about the “Plasma (0.1 μM), activity in % of control” value of the same compound?
Answer: 12.8 % of control

Question: What does the source list for `CN(C)C(=O)C1CCN(C(=O)Cc2c3n(c(=S)n2C)C[C@H](c2c(F)ccc(Br)c2F)C3)C1` (stereo partly drawn) [Example 453, 1-(2-((S)-6-(3-bromo-2,6-difluorophenyl)-2-methyl-3-thioxo-2,5,6,7-tetrahydro-3H-pyrrolo[1,2-c]imidazol-1-yl)acetyl)-N,N-dimethylpyrrolidine-3-carboxamide]?
Answer: Plasma (0.01 μM), activity in % of control: 56.6 % of control; Plasma (0.1 μM), activity in % of control: 10.4 % of control

Question: What does the source list for `CN(C(=O)Cc1c2n(c(=S)n1C)C[C@H](c1c(F)ccc(Br)c1F)C2)C1COC1` [Example 454, (S)-2-(6-(3-bromo-2,6-difluorophenyl)-2-methyl-3-thioxo-2,5,6,7-tetrahydro-3H-pyrrolo[1,2-c]imidazol-1-yl)-N-methyl-N-(oxetan-3-yl)acetamide]?
Answer: Plasma (0.01 μM), activity in % of control: 56.8 % of control; Plasma (0.1 μM), activity in % of control: 8.1 % of control

Question: Which “Plasma (0.01 μM), activity in % of control” value does the source give for `CN(C(=O)Cc1c2n(c(=S)n1C)C[C@@H](c1c(F)ccc(F)c1F)C2)[C@@H]1CCOC1` [Example 455, N-methyl-2-((R)-2-methyl-3-thioxo-6-(2,3,6-trifluorophenyl)-2,5,6,7-tetrahydro-3H-pyrrolo[1,2-c]imidazol-1-yl)-N—((R)-tetrahydrofuran-3-yl)acetamide] here?
Answer: 131.0 % of control

Question: And the “Plasma (0.1 μM), activity in % of control” value?
Answer: 50.2 % of control

Question: How did the “Plasma (0.01 μM), activity in % of control” value turn out when `Cn1c(CCO)c2n(c1=S)C[C@H](c1c(F)ccc(Br)c1F)C2` [Example 456, (S)-6-(3-bromo-2,6-difluorophenyl)-1-(2-hydroxyethyl)-2-methyl-2,5,6,7-tetrahydro-3H-pyrrolo[1,2-c]imidazole-3-thione] was run?
Answer: 86.8 % of control

Question: And the “Plasma (0.1 μM), activity in % of control” value?
Answer: 20.2 % of control

Question: `CN1CC(NC(=O)Cc2c3n(c(=S)n2C)C[C@H](c2c(F)ccc(Br)c2F)C3)CCC1=O` (stereo partly drawn) [Example 457, 2-((S)-6-(3-bromo-2,6-difluorophenyl)-2-methyl-3-thioxo-2,5,6,7-tetrahydro-3H-pyrrolo[1,2-c]imidazol-1-yl)-N-(1-methyl-6-oxopiperidin-3-yl)acetamide] was tested. Which “Plasma (0.01 μM), activity in % of control” value did it give?
Answer: 42.1 % of control

Question: And the “Plasma (0.1 μM), activity in % of control” value?
Answer: 7.3 % of control

Question: With `Cn1c(CC(=O)N2CCC(CF)C2)c2n(c1=S)C[C@H](c1c(F)ccc(Br)c1F)C2` (stereo partly drawn) [Example 458, 2-((S)-6-(3-bromo-2,6-difluorophenyl)-2-methyl-3-thioxo-2,5,6,7-tetrahydro-3H-pyrrolo[1,2-c]imidazol-1-yl)-1-(3-(fluoromethyl)pyrrolidin-1-yl)ethan-1-one] as the compound, how does the “Plasma (0.01 μM), activity in % of control” value read?
Answer: 58.5 % of control

Question: What about the “Plasma (0.1 μM), activity in % of control” value of the same compound?
Answer: 12.2 % of control

Question: With `Cn1c(CC(=O)N[C@H]2CCOC2)c2n(c1=S)C[C@H](c1c(F)ccc(Br)c1F)C2` [Example 459, 2-((S)-6-(3-bromo-2,6-difluorophenyl)-2-methyl-3-thioxo-2,5,6,7-tetrahydro-3H-pyrrolo[1,2-c]imidazol-1-yl)-N—((S)-tetrahydrofuran-3-yl)acetamide] as the compound, how does the “Plasma (0.01 μM), activity in % of control” value read?
Answer: 65.6 % of control

Question: And the “Plasma (0.1 μM), activity in % of control” value?
Answer: 13.5 % of control

Question: What does the source list for `[2H]C([2H])([2H])n1c(CC(=O)N2CCOCC2)c2n(c1=S)C[C@H](c1c(F)ccc(Cl)c1F)C2` [Example 460, (S)-2-(6-(3-chloro-2,6-difluorophenyl)-2-(methyl-d)-3-thioxo-2,5,6,7-tetrahydro-3H-pyrrolo[1,2-c]imidazol-1-yl)-1-morpholinoethan-1-one]?
Answer: Plasma (0.01 μM), activity in % of control: 43.9 % of control; Plasma (0.1 μM), activity in % of control: 18.2 % of control
